Assay results reported in PubChem BioAssay AID1259407 (Chemical Carcinogenesis Research Information System (CCRIS), 2018).
Calls of active or inactive are those of the source. No rule for the calls is given here.

System: CCRIS mutagenicity, Ames/micronucleus/aberration tests
Assay: CCRIS mutagenicity studies
[1] = Test System: AMES SALMONELLA TYPHIMURIUM, Strain/Indicator: TA98, Metabolic Activation: NONE, Method: PREINCUBATION
[2] = Test System: AMES SALMONELLA TYPHIMURIUM, Strain/Indicator: TA100, Metabolic Activation: NONE, Method: PREINCUBATION
[3] = Test System: AMES SALMONELLA TYPHIMURIUM, Strain/Indicator: TA102, Metabolic Activation: NONE, Method: PREINCUBATION
[4] = Test System: AMES SALMONELLA TYPHIMURIUM, Strain/Indicator: TA104, Metabolic Activation: NONE, Method: PREINCUBATION
[5] = Test System: AMES SALMONELLA TYPHIMURIUM, Strain/Indicator: TA1535, Metabolic Activation: NONE, Method: PREINCUBATION
[6] = Test System: AMES SALMONELLA TYPHIMURIUM, Strain/Indicator: TA1537, Metabolic Activation: NONE, Method: PREINCUBATION

Measured: mutagenic call

CCCCOC(=O)/C=C\C(=O)OCCCC
inactive: Test System: AMES SALMONELLA TYPHIMURIUM, Strain/Indicator: TA97A, Metabolic Activation: NONE inactive; negative | Test System: AMES SALMONELLA TYPHIMURIUM, Strain/Indicator: TA97A, Metabolic Activation: RAT, LIVER, S-9, AROCLOR 1254 inactive; negative | Test System: AMES SALMONELLA TYPHIMURIUM, Strain/Indicator: TA98, Metabolic Activation: NONE inactive; negative | Test System: AMES SALMONELLA TYPHIMURIUM, Strain/Indicator: TA98, Metabolic Activation: RAT, LIVER, S-9, AROCLOR 1254 inactive; negative | Test System: AMES SALMONELLA TYPHIMURIUM, Strain/Indicator: TA100, Metabolic Activation: NONE inactive; negative | Test System: AMES SALMONELLA TYPHIMURIUM, Strain/Indicator: TA100, Metabolic Activation: RAT, LIVER, S-9, AROCLOR 1254 inactive; negative | Test System: AMES SALMONELLA TYPHIMURIUM, Strain/Indicator: TA102, Metabolic Activation: NONE inactive; negative | Test System: AMES SALMONELLA TYPHIMURIUM, Strain/Indicator: TA102, Metabolic Activation: RAT, LIVER, S-9, AROCLOR 1254 inactive; negative

O=c1oc2c(O)c(O)cc3c(=O)oc4c(O)c(O)cc1c4c23
inactive: [1] inactive; negative | Test System: AMES SALMONELLA TYPHIMURIUM, Strain/Indicator: TA98, Metabolic Activation: RAT LIVER S-9, Method: PREINCUBATION inactive; negative | [2] inactive; negative | Test System: AMES SALMONELLA TYPHIMURIUM, Strain/Indicator: TA100, Metabolic Activation: RAT LIVER S-9, Method: PREINCUBATION inactive; negative | Test System: Ames Salmonella typhimurium, Strain/Indicator: TA102, Metabolic Activation: None, Method: Preincubation inactive; negative | Test System: Ames Salmonella typhimurium, Strain/Indicator: TA102, Metabolic Activation: Rat, Liver, S-9, Aroclor 1254 in 0.154 M KCl, Method: Preincubation inactive; negative | Test System: E. COLI, Strain/Indicator: WP2, Metabolic Activation: RAT, LIVER, S-9, AROCLOR 1254, Method: STANDARD PLATE inactive; negative | Test System: MOUSE LYMPHOMA, Strain/Indicator: L5178Y (TK+/TK-), Metabolic Activation: NONE, Method: SUSPENSION/PLATE inactive; negative. reevaluation of results: negative | Test System: MOUSE LYMPHOMA, Strain/Indicator: L5178Y (TK+/TK-), Metabolic Activation: RAT, LIVER, S-9, AROCLOR 1254, Method: SUSPENSION/PLATE inactive; negative. reevaluation of results: inconclusive

CC(=O)Nc1ccc(S(=O)(=O)Cl)cc1
inactive: [1] inactive; negative | Test System: AMES SALMONELLA TYPHIMURIUM, Strain/Indicator: TA98, Metabolic Activation: RAT LIVER S-9, PHENOBARBITAL AND BETA-NAPHTHOFLAVONE, Method: PREINCUBATION inactive; negative | [2] inactive; negative | Test System: AMES SALMONELLA TYPHIMURIUM, Strain/Indicator: TA100, Metabolic Activation: RAT LIVER S-9, PHENOBARBITAL AND BETA-NAPHTHOFLAVONE, Method: PREINCUBATION inactive; negative | [3] inactive; negative | Test System: AMES SALMONELLA TYPHIMURIUM, Strain/Indicator: TA102, Metabolic Activation: RAT LIVER S-9, PHENOBARBITAL AND BETA-NAPHTHOFLAVONE, Method: PREINCUBATION inactive; negative | [4] inactive; negative | Test System: AMES SALMONELLA TYPHIMURIUM, Strain/Indicator: TA104, Metabolic Activation: RAT LIVER S-9, PHENOBARBITAL AND BETA-NAPHTHOFLAVONE, Method: PREINCUBATION inactive; negative | [5] inactive; negative | Test System: AMES SALMONELLA TYPHIMURIUM, Strain/Indicator: TA1535, Metabolic Activation: RAT LIVER S-9, PHENOBARBITAL AND BETA-NAPHTHOFLAVONE, Method: PREINCUBATION inactive; negative | [6] inactive; negative | Test System: AMES SALMONELLA TYPHIMURIUM, Strain/Indicator: TA1537, Metabolic Activation: RAT LIVER S-9, PHENOBARBITAL AND BETA-NAPHTHOFLAVONE, Method: PREINCUBATION inactive; negative | Test System: E.COLI, Strain/Indicator: WP2UVRA/PKM101, Metabolic Activation: NONE, Method: PREINCUBATION inactive; negative | Test System: E.COLI, Strain/Indicator: WP2UVRA/PKM101, Metabolic Activation: RAT LIVER S-9, PHENOBARBITAL AND BETA-NAPHTHOFLAVONE, Method: PREINCUBATION inactive; negative | Test System: E.COLI, Strain/Indicator: WP2UVRA, Metabolic Activation: NONE, Method: PREINCUBATION inactive; negative | Test System: E.COLI, Strain/Indicator: WP2UVRA, Metabolic Activation: RAT LIVER S-9, PHENOBARBITAL AND BETA-NAPHTHOFLAVONE, Method: PREINCUBATION inactive; negative

CN1CCN=N1
active: Test System: AMES SALMONELLA TYPHIMURIUM, Strain/Indicator: TA1535, Metabolic Activation: NONE, Method: STANDARD PLATE active; positive

CC12OOC1(CO)Oc1ccccc12 (stereo unspecified)
inactive: [2] inactive; negative

O=c1[nH]c(=O)n([C@H]2C[C@H](O)[C@@H](CO)O2)cc1I
inactive: Test System: AMES SALMONELLA TYPHIMURIUM, Strain/Indicator: TA97, Metabolic Activation: NONE, Method: PREINCUBATION inactive; negative | Test System: AMES SALMONELLA TYPHIMURIUM, Strain/Indicator: TA97, Metabolic Activation: RAT, LIVER, S-9, AROCLOR 1254, Method: PREINCUBATION inactive; negative | [1] inactive; negative | Test System: AMES SALMONELLA TYPHIMURIUM, Strain/Indicator: TA98, Metabolic Activation: RAT, LIVER, S-9, AROCLOR 1254, Method: PREINCUBATION inactive; negative | [2] inactive; negative | Test System: AMES SALMONELLA TYPHIMURIUM, Strain/Indicator: TA100, Metabolic Activation: RAT, LIVER, S-9, AROCLOR 1254, Method: PREINCUBATION inactive; negative | [3] inactive; negative | Test System: AMES SALMONELLA TYPHIMURIUM, Strain/Indicator: TA102, Metabolic Activation: RAT, LIVER, S-9, AROCLOR 1254, Method: PREINCUBATION inactive; negative | [4] inactive; negative | Test System: AMES SALMONELLA TYPHIMURIUM, Strain/Indicator: TA104, Metabolic Activation: RAT, LIVER, S-9, AROCLOR 1254, Method: PREINCUBATION inactive; negative | [5] inactive; negative | Test System: AMES SALMONELLA TYPHIMURIUM, Strain/Indicator: TA1535, Metabolic Activation: RAT, LIVER, S-9, AROCLOR 1254, Method: PREINCUBATION inactive; negative | [6] inactive; negative | Test System: AMES SALMONELLA TYPHIMURIUM, Strain/Indicator: TA1537, Metabolic Activation: RAT, LIVER, S-9, AROCLOR 1254, Method: PREINCUBATION inactive; negative | Test System: AMES SALMONELLA TYPHIMURIUM, Strain/Indicator: TA1538, Metabolic Activation: NONE, Method: PREINCUBATION inactive; negative | Test System: AMES SALMONELLA TYPHIMURIUM, Strain/Indicator: TA1538, Metabolic Activation: RAT, LIVER, S-9, AROCLOR 1254, Method: PREINCUBATION inactive; negative | Test System: UDS RODENT HEPATOCYTES, Strain/Indicator: THY INCORP, Metabolic Activation: NONE inactive; negative
active: Test System: CHINESE HAMSTER V-79, Strain/Indicator: V-79/8-AZAGUANINE, Metabolic Activation: NONE active; positive

OCCN1CC1
active: Test System: CHINESE HAMSTER V-79, Strain/Indicator: V-79/6-THIOGUANINE, Metabolic Activation: NONE, Method: FLASK ASSAY active; positive

N[C@@H](CCC(=O)NC(CSC(Cl)=C(Cl)Cl)C(=O)NCC(=O)O)C(=O)O (stereo partly specified)
active: Test System: AMES SALMONELLA TYPHIMURIUM, Strain/Indicator: TA100, Metabolic Activation: RAT, KIDNEY, MICROSOMES, Method: PREINCUBATION active; positive
inactive: [2] inactive; negative
